Measurements from PMC8214221, “Sequence determinants in the cathelicidin LL-37 that promote inflammation via presentation of RNA to scavenger receptors” (The Journal of Biological Chemistry, 2021).
In brackets after ≈: the same amount, converted by molar mass. Read-outs that look alike come from different tables or passages of the source. Residues, ends and D or L forms follow the SMILES beside them.

How the values were obtained:
[1] = tested on: NHEKs, IL-6 secretion in response to U1 dsRNA; experiment: IL-6 secretion ELISA in NHEKs; assay type: cell-based, human; settings: U1 dsRNA 2.5 μg/ml + peptide 2 μM, 18 h, n = 3
Experimental: Protein levels of human IL-6 were analyzed from cell supernatant with ELISA (n = 3). Corresponding MIC values of LL-34 peptides L1A–R34A against Staphylococcus aureus USA300 are shown in the heat map. B, human dermal endothelial cells (HDMECs) were treated with either U1 dsRNA (2.5 μg/ml) or a combination of U1 dsRNA (2.5 μg/ml) and LL-34 peptides (Pep 1–Pep 34 and Pep–parent LL-34) at 2 μM for 18 h. IL-6 ELISA results are shown (n = 3). Green bars denote loss of IL-6 protein secretion compared with parent control shown in red. C, helical wheel plot for LL-34. Amino acids with green circles denote specific residues where replacement with an alanine caused the loss of IL-6 secretion compared with parent LL-34 peptide in NHEKs cotreated with U1 dsRNA. D, in the helical wheel plot for LL-34, circled green amino acids indicate that a substitution caused a loss of vetting in HDMEC. E–H, NHEKs were treated with LL-34-parent peptide (LL-34-P), LL-34-F5A, LL-34-I24A, LL-34-F27A, and LL-34-L31A at 2 μM, either individually or in combination with U1 dsRNA (2.5 μg/ml) for 8 h. Gene expression of IL-6, IFNB1, TSLP, and CXCL10 was assessed with qRT-PCR. GAPDH was used as a reference gene (n = 3) (∗p < 0.05; ∗∗∗∗p < 0.0001). One way-ANOVA was used. IL-6, interleukin 6; LL-34, 34-amino acid peptide; MIC, minimum inhibitory concentration, ns, not significant.
We hypothesized that sequential replacement of each amino acid in LL-34 peptide with a neutral amino acid alanine might reveal the amino acid residues critical for its ability to induce inflammation in response to U1 dsRNA. First, we treated NHEKs and human dermal microvascular endothelial cells (HDMECs) with LL-34 parent peptide and each of the 34 mutants at 2 μM for 18 h and measured the secretion of interleukin 6 (IL-6) in the supernatant by ELISA (Fig. S1, A and B). […] We then treated both NHEKs and HDMECs with a combination of U1 dsRNA (2.5 μg/ml) and the LL-34 parent/mutant peptides at 2 μM for 18 h and measured IL-6 secretion (Fig. 1, A–C). […] A similar pattern of IL-6 release was observed when HDMECs were treated with the peptide library and U1 dsRNA (Fig. 1B).
Cell culture supernatant was frozen at −80 °C until use for analysis. ELISA was performed with sandwich ELISA kits (R&D Systems) and quantified on a Spectramax Absorbance reader (Molecular Biosystems). Data were analyzed with GraphPad.

[2] = tested on: methicillin-resistant Staphylococcus aureus strain USA300; assay type: cell-based; settings: for Antimicrobial potency against S. aureus USA300 compared with LL-34 parent peptide: MIC comparison with parent (MIC 25 μM), 18 h
Source text: Since LL-34 was the minimal truncation mutant of LL-37 that retained both antimicrobial and immune modulatory activity, we prepared a series of synthetic peptides with sequential substitutions of alanine at each amino acid position of the LL-34 parent peptide (Table 1). We compared the minimum inhibitory concentration (MIC) for the LL-34 parent peptide and the alanine mutants (LL-34 peptides—L1A and R34A) against methicillin-resistant Staphylococcus aureus strain USA300 (Fig. 1A). LL-34 peptides were incubated at concentrations of 0 to 100 μM with bacteria. The minimal concentration at which no growth was observed was noted after 18 h of incubation. […] Because of these changes in the MIC against S. aureus between the mutants, we investigated the effective toxicity profile of the peptides in normal human epidermal keratinocytes (NHEKs) by lactate dehydrogenase (LDH) release assay (Table 1). […] Most other peptides were cytotoxic at a minimal concentration of 10 μM, whereas LL-34—K15A was toxic at a concentration of 2.5 μM.
Methicillin-resistant S. aureus USA300 and methicillin-sensitive S. aureus SA113 (American Type Culture Collection 35556) were cultured in 3% tryptic soy broth overnight at 37 °C with shaking at 250 rpm. GAS M49 strain NZ131 was cultured in Todd Hewitt broth supplemented with 1% yeast extract overnight at 37 °C without shaking. E. coli R1 strain RS218 was cultured in LB broth overnight at 37 °C with shaking at 250 rpm. MIC values were determined using a round-bottom 96-well microdilution method with RPMI cell culture media (as a source of Ca^2+ and Mg^2+) supplemented with tryptic soy broth, Todd Hewitt broth/yeast extract, or LB to facilitate growth of the respective bacterial strains. Overnight bacterial cultures were subcultured into fresh broth and grown to midlate log phase indicated by an absorbance at 600 nm value between 0.8 and 1.0 for each bacterial strain. The absorbance was then normalized to provide a concentration of 1 × 10^7 colony-forming units/ml in RPMI medium. The LL-34 parent and alanine scan mutants were serially diluted into the 96-well microtiter plates containing prewarmed RPMI bacterial growth medium. A 10 μl aliquot of the midlate log phase bacteria was inoculated into the 96-well microtiter plates that contained 95 μl of RPMI medium with or without the LL-34 peptide dilutions and incubated for 16 to 18 h at […] with shaking at 200 rpm. Inhibition of growth was determined by measuring the absorbance at 600 nm readings of each well using a microplate reader (Infinite M200 Pro; Tecan). The MIC of each bacterial strain was determined by the lowest peptide concentration that inhibited more than 80% bacterial growth.

[3] = tested on: normal human epidermal keratinocytes (NHEKs); experiment: LDH release cytotoxicity assay in keratinocytes; assay type: cell-based; settings: minimal concentration giving 50% LDH release by NHEKs
In short: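 Normal human epidermal keratinocytes were exposed to LL-34 parent and alanine-substituted peptides. Cytotoxicity was read as LDH release in fresh culture supernatants after treatment, using a commercial kit, and reported as the minimal concentration showing toxicity.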

CC[C@H](C)[C@H](NC(=O)[C@H](CCCNC(=N)N)NC(=O)[C@H](CCC(N)=O)NC(=O)[C@@H](NC(=O)[C@@H](NC(=O)[C@H](CCCNC(=N)N)NC(=O)[C@H](CCCCN)NC(=O)[C@H](Cc1ccccc1)NC(=O)[C@H](CCC(=O)O)NC(=O)[C@H](CCCCN)NC(=O)CNC(=O)[C@H](C)NC(=O)[C@H](CCCCN)NC(=O)[C@H](CCC(=O)O)NC(=O)[C@H](CCCCN)NC(=O)[C@H](CO)NC(=O)[C@H](CCCCN)NC(=O)[C@H](CCCNC(=N)N)NC(=O)[C@H](Cc1ccccc1)NC(=O)[C@H](Cc1ccccc1)NC(=O)[C@H](CC(=O)O)NC(=O)CNC(=O)[C@H](CC(C)C)NC(=O)[C@@H](N)CC(C)C)[C@@H](C)CC)C(C)C)C(=O)N[C@@H](CCCCN)C(=O)N[C@@H](CC(=O)O)C(=O)N[C@@H](Cc1ccccc1)C(=O)N[C@@H](CC(C)C)C(=O)N[C@@H](CCCNC(=N)N)C(=O)N[C@@H](CC(N)=O)C(=O)N[C@@H](CC(C)C)C(=O)N[C@H](C(=O)N1CCC[C@H]1C(=O)N[C@@H](CCCNC(=N)N)C(=O)O)C(C)C [LL-34—I13A] (H-LLGDFFRKSKEKAGKEFKRIVQRIKDFLRNLVPR-OH)
IL-6 protein secretion, cotreatment with U1 dsRNA, vs U1 dsRNA + LL-34 parent [1]: reduced secretion of IL-6 protein | Antimicrobial potency against S. aureus USA300 compared with LL-34 parent peptide [2]: killed S. aureus USA300 more potently | Antimicrobial potency against S. aureus USA300 compared with LL-34 parent peptide ([2]; listed as IL3a): gained antimicrobial activity | Minimal cytotoxic concentration in NHEK (LD50) [3]: 5 µM

CC[C@H](C)[C@H](NC(=O)[C@H](CCCCN)NC(=O)[C@H](CCC(=O)O)NC(=O)[C@H](CCCCN)NC(=O)[C@H](CO)NC(=O)[C@H](CCCCN)NC(=O)[C@H](CCCNC(=N)N)NC(=O)[C@H](Cc1ccccc1)NC(=O)[C@H](Cc1ccccc1)NC(=O)[C@H](CC(=O)O)NC(=O)CNC(=O)[C@H](CC(C)C)NC(=O)[C@@H](N)CC(C)C)C(=O)NCC(=O)N[C@@H](CCCCN)C(=O)N[C@@H](CCC(=O)O)C(=O)N[C@@H](Cc1ccccc1)C(=O)N[C@@H](CCCCN)C(=O)N[C@@H](CCCNC(=N)N)C(=O)N[C@H](C(=O)N[C@H](C(=O)N[C@@H](CCC(N)=O)C(=O)N[C@@H](CCCNC(=N)N)C(=O)N[C@H](C(=O)N[C@@H](CCCCN)C(=O)N[C@@H](CC(=O)O)C(=O)N[C@@H](Cc1ccccc1)C(=O)N[C@@H](CC(C)C)C(=O)N[C@@H](CCCNC(=N)N)C(=O)N[C@@H](CC(N)=O)C(=O)N[C@@H](CC(C)C)C(=O)N[C@H](C(=O)N1CCC[C@H]1C(=O)N[C@@H](C)C(=O)O)C(C)C)[C@@H](C)CC)C(C)C)[C@@H](C)CC [LL-34—R34A] (H-LLGDFFRKSKEKIGKEFKRIVQRIKDFLRNLVPA-OH)
Antimicrobial potency against S. aureus USA300 compared with LL-34 parent peptide [2]: reduced MIC compared with the parent peptide | Minimal cytotoxic concentration in NHEK (LD50) [3]: 10 µM

CC[C@H](C)[C@H](NC(=O)[C@H](CCCCN)NC(=O)[C@H](CCC(=O)O)NC(=O)[C@H](CCCCN)NC(=O)[C@H](CO)NC(=O)[C@H](CCCCN)NC(=O)[C@H](CCCNC(=N)N)NC(=O)[C@H](Cc1ccccc1)NC(=O)[C@H](Cc1ccccc1)NC(=O)[C@H](CC(=O)O)NC(=O)CNC(=O)[C@H](CC(C)C)NC(=O)[C@@H](N)CC(C)C)C(=O)NCC(=O)N[C@@H](CCCCN)C(=O)N[C@@H](CCC(=O)O)C(=O)N[C@@H](Cc1ccccc1)C(=O)N[C@@H](CCCCN)C(=O)N[C@@H](CCCNC(=N)N)C(=O)N[C@H](C(=O)N[C@H](C(=O)N[C@@H](CCC(N)=O)C(=O)N[C@@H](CCCNC(=N)N)C(=O)N[C@H](C(=O)N[C@@H](CCCCN)C(=O)N[C@@H](CC(=O)O)C(=O)N[C@@H](Cc1ccccc1)C(=O)N[C@@H](CC(C)C)C(=O)N[C@@H](CCCNC(=N)N)C(=O)N[C@@H](CC(N)=O)C(=O)N[C@@H](CC(C)C)C(=O)N[C@@H](C)C(=O)N1CCC[C@H]1C(=O)N[C@@H](CCCNC(=N)N)C(=O)O)[C@@H](C)CC)C(C)C)[C@@H](C)CC [LL-34—V32A] (H-LLGDFFRKSKEKIGKEFKRIVQRIKDFLRNLAPR-OH)
IL-6 protein secretion, cotreatment with U1 dsRNA, vs U1 dsRNA + LL-34 parent [1]: reduced secretion of IL-6 protein | Minimal cytotoxic concentration in NHEK (LD50) [3]: 10 µM

CC[C@H](C)[C@H](NC(=O)[C@H](CCCCN)NC(=O)[C@H](CCC(=O)O)NC(=O)[C@H](CCCCN)NC(=O)[C@H](CO)NC(=O)[C@H](CCCCN)NC(=O)[C@H](CCCNC(=N)N)NC(=O)[C@H](Cc1ccccc1)NC(=O)[C@H](Cc1ccccc1)NC(=O)[C@H](CC(=O)O)NC(=O)CNC(=O)[C@H](CC(C)C)NC(=O)[C@@H](N)CC(C)C)C(=O)NCC(=O)N[C@@H](CCCCN)C(=O)N[C@@H](CCC(=O)O)C(=O)N[C@@H](Cc1ccccc1)C(=O)N[C@@H](CCCCN)C(=O)N[C@@H](CCCNC(=N)N)C(=O)N[C@H](C(=O)N[C@H](C(=O)N[C@@H](CCC(N)=O)C(=O)N[C@@H](CCCNC(=N)N)C(=O)N[C@H](C(=O)N[C@@H](CCCCN)C(=O)N[C@@H](CC(=O)O)C(=O)N[C@@H](Cc1ccccc1)C(=O)N[C@@H](CC(C)C)C(=O)N[C@@H](CCCNC(=N)N)C(=O)N[C@@H](CC(N)=O)C(=O)N[C@@H](CC(C)C)C(=O)N[C@H](C(=O)N1CCC[C@H]1C(=O)N[C@@H](CCCNC(=N)N)C(=O)O)C(C)C)[C@@H](C)CC)C(C)C)[C@@H](C)CC [LL-34—parent] (H-LLGDFFRKSKEKIGKEFKRIVQRIKDFLRNLVPR-OH)
MIC against S. aureus USA300 ([2]; USA300, 18 h): 25 µM (≈ 104 µg/mL) | Minimal cytotoxic concentration in NHEK (LD50) [3]: 5 µM
